Values of other authors as cited in patent publication US8759098B2, “Method for cloning pluripotent stem cells” (Boston Biomedical Research Institute, Inc., priority 2009, dated 2014).

Experiments:
human adult tissue = conditions: used singly and in combination; Lin et al. 2009; cited from earlier work
somatic cells = conditions: low oxygen conditions; Page et al. 2009; cited from earlier work

Compound	efficiency of creating stem cells from human adult tissue (human adult tissue)	expression of pluripotency inducing genes (somatic cells)
NC(=O)c1ccc(-c2nc(-c3ccccn3)c(-c3ccc4c(c3)OCO4)[nH]2)cc1 [SB43142]	dramatically improve the efficiency	–
FGF2: fibroblast growth factor 2	–	increased
O=C(NOC[C@H](O)CO)c1ccc(F)c(F)c1Nc1ccc(I)cc1F [PD0325901]	dramatically improve the efficiency	–
